Columns and labels:
EMT-6 cells [1] = test: Toxicity to hypoxic EMT-6 cells (surviving fraction); format: cell-based, mouse; settings: for time required to reduce the cell population by 90%: 37° C.; for selective toxicity to hypoxic EMT-6 tumor cells: in words
Experimental: This represents a cytosidal toxicity about 10× that of MISO under the same conditions.
EXAMPLE 9 TOXICITY STUDIES
EMT-6 mouse fibrosarcoma cells in stirred cultures, as described previously (5), were exposed to various concentrations of the test drugs under hypoxic conditions. Cells were removed at various intervals and the colony-forming ability was assessed by plating the cells in drug-free complete MEM with 10% fetal calf serum. The data were used to construct plots of surviving fraction of EMT-6 cells against time of incubation with test drug at various drug concentrations (FIG. 2) as in Jette (13).

EMT-6 cells [2] = test: Cell uptake / binding to the acid insoluble (macromolecular) fraction of EMT-6 cells; format: cell-based, mouse
Experimental: The binding of IAZG to the acid precipitable fraction of EMT-6 cells in vitro is dependent on the degree of hypoxia as shown in FIG. 4. […] To assess the relative efficiency of uptake of the test compounds, the initial binding rate in terms of pmol/10^6 cells/h was determined at several different concentrations. […] This is the highest binding rate measured to date for any 2-nitroimidazole derivative and is 4 to 8 times greater than MISO.
Initial binding rates were measured (FIG. 8) at four concentrations of IAZA (3, 10, 30 and 100 μM), using normally oxygenated and hypoxic EMT-6 cell cultures as described previously (13). Similar studies at the same concentration of misonidazole were used as controls.
EXAMPLE 8 CELL UPTAKE STUDIES
The uptake of test drugs into EMT-6 cell suspensions, under oxic and hypoxic conditions, was determined as described previously (18, 13). The data were analyzed in terms of drug binding to the macromolecular fraction at various times and at various test drug concentrations (FIG. 4). The initial binding rate, in units of pmol/10^6 cells per hour for each drug, was determined from the binding data (FIG. 5).

EMT-6 tumor tissue = test: Imaging study using ^125 I-IAZA; format: in vivo

| SMILES | time required to reduce the cell population by 90% (EMT-6 cells [1]; 1.0 mM, hypoxic) | cytosidal toxicity relative to MISO (EMT-6 cells [1]; 1.0 mM, hypoxic, same conditions) | selective toxicity to hypoxic EMT-6 tumor cells (EMT-6 cells [1]) | toxicity under oxic conditions (EMT-6 cells [1]; oxic) | binding with time (EMT-6 cells [2]) | oxygen dependence of uptake/binding (EMT-6 cells [2]; 10 μM, various oxygen levels) | initial binding rate, comparison (EMT-6 cells [2]; hypoxic, vs IAZA or MISO) | delineation of tumor tissue in imaging (EMT-6 tumor tissue) |
| --- | --- | --- | --- | --- | --- | --- | --- | --- |
| O=[N+]([O-])c1nccn1[C@@H]1O[C@H](CI)[C@H](O)[C@H](O)[C@H]1O [IAZG, 1-(6-iodo-6-deoxy-β-D-galactopyranosyl)-2-nitroimidazole] | about 1.75 h | about 10 × | selective toxicity to hypoxic EMT-6 tumor cells | absence of toxicity under oxic conditions | appears to increase linearly with time | greatest uptake of IAZG occurs under nitrogen incubation with a decrease in the binding rate as the oxygen concentration to which the cells are exposed is increased | higher binding rate than IAZA or MISO | – |
| O=[N+]([O-])c1nccn1[C@@H]1O[C@H](CI)[C@@H](O)[C@@H]1O [IAZA, 1-(5-iodo-5-deoxy-β-D-arabino-furanosyl)-2-nitroimidazole] | 1.65 h | – | selective toxicity to hypoxic EMT-6 tumor cells | – | – | – | – | clearly delineated from surrounding tissue |

Reference: patent US5401490A, “Markers of tissue hypoxia” (priority 1989, dated 1995)
